Laboratory results from patent US20050070510A1, “Substituted tetracycline compounds as synergistic antifungal agents” (Paratek Pharmaceuticals, Inc., priority 2001, published 2005).

These compounds were tested on COS-1 cells (assay: In vitro mammalian cytotoxicity assay (Resazurin)).

Row | SMILES | In Vitro Cytotoxicity
1 | CN(C)[C@@H]1C(O)=C(C(N)=O)C(=O)[C@@]2(C#N)C(O)=C3C(=O)c4c(O)cccc4[C@H](OSC(F)(F)C(F)(F)F)[C@@]3(N)[C@H](O)[C@@]12N [AS] | ** (toxicities less than 25 μg/mL are represented by **)
2 | CCSC(=O)/C=C/c1ccc2c(c1O)C(=O)C1=C(O)[C@]3(C#N)C(=O)C(C(N)=O)=C(O)[C@@H](N(C)C)[C@]3(N)[C@@H](O)[C@]1(N)[C@H]2O [AT] | ** (toxicities less than 25 μg/mL are represented by **)
3 | CN(C)[C@@H]1C(O)=C(C(N)=O)C(=O)[C@@]2(C#N)C(O)=C3C(=O)c4c(O)cccc4C(N)[C@@]3(N)[C@H](OC(=O)CNC(=O)OC(C)(C)C)[C@@]12N (stereo partly shown) [AU] | ** (toxicities less than 25 μg/mL are represented by **)
4 | CN(C)[C@@H]1C(O)=C(C(N)=O)C(=O)[C@@]2(C#N)C(O)=C3C(=O)c4c(ccc(/C=C/C(=O)O)c4O)[C@H](O)[C@@]3(N)[C@H](O)[C@@]12N [AV] | ** (toxicities less than 25 μg/mL are represented by **)
5 | COC(=O)/C=C/c1ccc2c(c1O)C(=O)C1=C(O)[C@]3(C#N)C(=O)C(C(N)=O)=C(O)[C@@H](N(C)C)[C@]3(N)[C@@H](O)[C@]1(N)C2N (stereo partly shown) [AW] | ** (toxicities less than 25 μg/mL are represented by **)
6 | CN(C)[C@@H]1C(O)=C(C(N)=O)C(=O)[C@@]2(C#N)C(O)=C3C(=O)c4c(ccc(-c5ccccc5)c4O)C(N)[C@@]3(N)[C@H](O)[C@@]12N (stereo partly shown) [AX] | ** (toxicities less than 25 μg/mL are represented by **)
7 | CN(C)[C@@H]1C(O)=C(C(N)=O)C(=O)[C@@]2(C#N)C(O)=C3C(=O)c4c(ccc(C5C=CCC5)c4O)C(N)[C@@]3(N)[C@H](O)[C@@]12N (stereo partly shown) [AY] | ** (toxicities less than 25 μg/mL are represented by **)
8 | COc1ccc(-c2ccc3c(c2O)C(=O)C2=C(O)[C@]4(C#N)C(=O)C(C(N)=O)=C(O)[C@@H](N(C)C)[C@]4(N)[C@@H](O)[C@]2(N)C3N)cc1 (stereo partly shown) [AZ] | ** (toxicities less than 25 μg/mL are represented by **)
9 | CC(=O)OCCCC(C)(C)c1ccc2c(c1O)C(=O)C1=C(O)[C@]3(C#N)C(=O)C(C(N)=O)=C(O)[C@@H](N(C)C)[C@]3(N)[C@@H](O)[C@]1(N)[C@H]2N [BA] | ** (toxicities less than 25 μg/mL are represented by **)
10 | CN(C)[C@@H]1C(O)=C(C(N)=O)C(=O)[C@@]2(C#N)C(O)=C3C(=O)c4c(ccc(C(C)(C)C)c4O)[C@H](N)[C@@]3(N)[C@H](O)[C@@]12N [BB] | ** (toxicities less than 25 μg/mL are represented by **)
11 | CCC(=O)O[C@H]1[C@@]2(N)C(=C(O)[C@]3(C#N)C(=O)C(C(N)=O)=C(O)[C@@H](N(C)C)[C@]13N)C(=O)c1c(ccc(C(C)(C)C)c1O)[C@@H]2N [BC] | ** (toxicities less than 25 μg/mL are represented by **)
12 | CCCC(C)(C)NC(=O)C1=C(O)[C@@H](N(C)C)[C@]2(N)[C@@H](O)[C@@]3(N)C(=C(O)[C@]2(C#N)C1=O)C(=O)c1c(O)cccc1[C@@H]3N [BD] | ** (toxicities less than 25 μg/mL are represented by **)
13 | CCCC(C)(C)NC(=O)C1=C(O)[C@@H](N(C)C)[C@]2(N)[C@@H](O)[C@@]3(N)C(=C(O)[C@]2(C#N)C1=O)C(=O)c1c(O)ccc(N(C)C)c1[C@@H]3N [BE] | ** (toxicities less than 25 μg/mL are represented by **)
14 | CN(C)[C@@H]1C(O)=C(C(N)=O)C(=O)[C@@]2(C#N)C(O)=C3C(=O)c4c(ccc(C(C)(C)CCC[N+](=O)[O-])c4O)[C@H](N)[C@@]3(N)[C@H](O)[C@@]12N [BF] | ** (toxicities less than 25 μg/mL are represented by **)
15 | CN(C)[C@@H]1C(O)=C(C(N)=O)C(=O)[C@@]2(OC(=O)CC(C)(C)C)C(O)=C3C(=O)c4c(ccc(NC(=O)NC(C)(C)C)c4O)[C@H](N)[C@@]3(N)[C@H](O)[C@@]12N [BG] | ** (toxicities less than 25 μg/mL are represented by **)
16 | CN(C)c1cc(/C=C/c2ccccc2)c(O)c2c1[C@H](N)[C@]1(N)C(=C(O)[C@]3(C#N)C(=O)C(C(N)=O)=C(O)[C@@H](N(C)C)[C@]3(N)[C@H]1O)C2=O [BH] | ** (toxicities less than 25 μg/mL are represented by **)
17 | CN(C)[C@@H]1C(O)=C(C(N)=O)C(=O)[C@@]2(C#N)C(O)=C3C(=O)c4c(ccc(NC(=O)OCC(C)(C)C)c4O)[C@H](N)[C@@]3(N)[C@H](O)[C@@]12N [BI] | ** (toxicities less than 25 μg/mL are represented by **)
18 | CN(C)[C@@H]1C(O)=C(C(N)=O)C(=O)[C@@]2(C#N)C(O)=C3C(=O)c4c(ccc(NC(=O)Nc5cccc6ccccc56)c4O)[C@H](N)[C@@]3(N)[C@H](OC(=O)Nc3ccccc3)[C@@]12N [BJ] | ** (toxicities less than 25 μg/mL are represented by **)
19 | CN(C)[C@@H]1C(O)=C(C(N)=O)C(=O)[C@@]2(C#N)C(O)=C3C(=O)c4c(ccc(NC(=O)OCC5c6ccccc6-c6ccccc65)c4O)[C@H](N)[C@@]3(N)[C@H](O)[C@@]12N [BK] | ** (toxicities less than 25 μg/mL are represented by **)
20 | CCC(=O)O[C@H]1[C@@]2(N)C(=C(O)[C@]3(C#N)C(=O)C(C(N)=O)=C(O)[C@@H](N(C)C)[C@]13N)C(=O)c1c(ccc(NC(=O)Nc3cccc4ccccc34)c1O)[C@@H]2N [BL] | * (toxicities greater than >25 μg/ml are represented by *)
21 | CN(C)[C@@H]1C(O)=C(C(N)=O)C(=O)[C@@]2(C#N)C(O)=C3C(=O)c4c(O)cccc4[C@H](N)[C@@]3(N)[C@H](OC(=O)Nc3ccc(O)cc3[N+](=O)O)[C@@]12N [BN] | * (toxicities greater than >25 μg/ml are represented by *)
22 | C=CC(O)O[C@H]1[C@@]2(N)C(=C(O)[C@]3(C#N)C(=O)C(C(N)=O)=C(O)[C@@H](N(C)C)[C@]13N)C(=O)c1c(O)cccc1[C@@H]2N (stereo partly shown) [BO] | ** (toxicities less than 25 μg/mL are represented by **)
23 | CN(C)[C@@H]1C(O)=C(C(N)=O)C(=O)[C@@]2(C#N)C(O)=C3C(=O)c4c(ccc(N(Cc5ccccc5)Cc5ccccc5)c4O)[C@H](N)[C@@]3(N)[C@H](O)[C@@]12N [BP] | ** (toxicities less than 25 μg/mL are represented by **)
24 | CN(C)[C@@H]1C(O)=C(C(N)=O)C(=O)[C@@]2(C#N)C(O)=C3C(=O)c4c(O)cccc4[C@H](N)[C@@]3(N)[C@H](OC(=O)CCN3CCCC3)[C@@]12N [BQ] | ** (toxicities less than 25 μg/mL are represented by **)
25 | CN(C)[C@@H]1C(O)=C(C(N)=O)C(=O)[C@@]2(C#N)C(O)=C3C(=O)c4c(ccc(-c5ccc(F)cc5)c4O)[C@H](N)[C@@]3(N)[C@H](O)[C@@]12N [BR] | ** (toxicities less than 25 μg/mL are represented by **)
26 | CN(C)[C@@H]1C(O)=C(C(N)=O)C(=O)[C@@]2(C#N)C(O)=C3C(=O)c4c(O)cccc4[C@H](N)[C@@]3(N)[C@H]([S+](N)[O-])[C@@]12N (stereo partly shown) [BS] | ** (toxicities less than 25 μg/mL are represented by **)
27 | CN(C)[C@@H]1C(O)=C(C(N)=O)C(=O)[C@@]2(C#N)C(O)=C3C(=O)c4c(ccc(-c5cc6ccccc6[nH]5)c4O)[C@H](N)[C@@]3(N)[C@H]([S+](N)[O-])[C@@]12N (stereo partly shown) [BT] | ** (toxicities less than 25 μg/mL are represented by **)
28 | CN(C)[C@@H]1C(O)=C(C(N)=O)C(=O)[C@@]2(C#N)C(O)=C3C(=O)c4c(O)cccc4/C(=C\c4ccc(F)cc4)[C@@]3(N)[C@H]([S+](N)[O-])[C@@]12N (stereo partly shown) [BU] | ** (toxicities less than 25 μg/mL are represented by **)
